Experiment [1] relates to tubulin. Kind of experiment: Tubulin stability in U251 1-5 whole cell extracts, Western blot. Conditions: lucanthone 2.5-100 µM; CRT at 200 µM. As for the experimental part: (§1) Total purified protein concentration was determined by the ratio of A280/A260. 250 ng of APE1 treated with lucanthone or hycanthone (0.05–100 µM) for 2 h at 37°C in final volume of 30 µl were mixed with an equal volume of gel loading buffer (0.001% bromophenol blue, 4% SDS, 10% 2-ME, 20% glycerol, and 125 mM Tris pH 6.8) and denatured at 95°C for 5 min. Total protein concentration in cell extracts was determined using the Bradford assay (BioRad, Hercules, CA) and 25 µg of total protein from soluble or insoluble cell fractions were mixed with an equal volume of gel loading buffer (0.001% bromophenol blue, 4% SDS, 10% 2-ME, 20% glycerol, and 125 mM Tris pH 6.8) and denatured at 95°C for 5 min. This mixture was separated by SDS-PAGE (4% stacking, 7.5% resolving gel) for 2–3 h at 40 mA on a BioRad MiniPROTEAN II Electrophoresis Cell. To detect proteins, proteins were transferred onto a trans-Blot nitrocellulose membrane (0.45 µm; BioRad) overnight at 4°C at 15 mA in standard Tris-Glycine buffer containing 20% ethanol. […] Chemi-luminescence was developed using an ECL kit according to the manufacturer's instructions and detected by exposing the blot to HyperfilmECL for 30 s–3 min. […]
(In western blotting, separated proteins are transferred to a membrane and probed.)

For experiment [2], the target named is T1, APE1 single mutants (F266A or W280S) (Homo sapiens, UniProt P27695, F266A).
T1 construct: made in house
Briefly: Endonuclease activity of APE1 hydrophobic site mutants with lucanthone. The format is biochemical. Particulars: 100 µM lucanthone, 2 h, 37°C. As for the experimental part: APE1 endonuclease activity was determined using an assay that measures the conversion of plasmid DNA from supercoiled to relaxed form by incision at an abasic site [35]–[36]. Briefly, the substrate used was 200 ng of depurinated pUC18 DNA in 10 µl of 1× APE1 buffer containing 50 mM Hepes, pH 7.4, 150 mM KCl, 5 mM MgCl2 and 100 µg/ml of BSA in presence of different concentrations of the cell extract (1 µl containing 0–55 ng of total protein). Similar reactions mixtures were set up with untreated pUC18, which served as the internal control. This reaction mixture was incubated at 37°C for 15 min, and the reaction was stopped by addition of alkaline stop mix (0.25% bromocresol green in 0.25N NaOH, 50% glycerol) and left at room temperature for 10–15 min. Then the products were resolved on a 0.8% agarose gel in 40 mM Tris-acetate and 2 mM EDTA for 2 h. The gel was stained with ethidium bromide to visualize supercoiled and relaxed plasmid DNA and imaged with a digital imaging system and the area under the supercoiled and relaxed form was determined. Final calculations were done in femtomoles (fmol) of abasic sites incised/min/mg protein with normalization done using Pyruvate Kinase units (PKU) present in these extracts. […] The endonuclease activity inhibition by lucanthone was analyzed using standard Lineweaver-Burke Plot to determine if the inhibition was competitive or non-competitive.

For experiment [3], the target named is T2, APE1 mutants F266A, F266C, F266A/W280A, D210N (Homo sapiens, UniProt P27695, F266A/W280A).
T2 construct: made in house
Kind of experiment: Circular dichroism of APE1 mutant proteins with lucanthone. Conditions: 140 µM lucanthone, 14 µM protein, 37°C, 60 min. As for the experimental part: (§2) APE1 and its mutant proteins (10 mg/ml), 50 µl (500 µg) (14 µM) in APE1 buffer (50 mM HEPES, pH 7.4, 150 mM KCl, 5 mM MgCl2), were mixed with lucanthone/hycanthone (1 mg/ml), 50 µl (50 µg), 140 µM and incubated at 37°C for 60 min and far UV-CD spectra were recorded at NSLS U11 beam line at BNL. Lucanthone and hycanthone were also scanned as drug controls. The scanning parameters used were a 0.001 cm path length quartz cell, scanning wavelengths from 260 to 170 nm, bandwidth of 0.5 nm, digital integration time of 1 s, time constant of 200 ms, step size of 1 nm, and sensitivity of 200 µV. The data were corrected with blank subtraction from APE1 buffer alone. The secondary structure for APE1 with or without lucanthone or hycanthone was analyzed using CDSSTR program DICHROWEB [38].

Experiment [4] concerns APE1 mutants F266A, F266C, F266A/W280A, D210N. The experiment is described as above. More on the design: species or system human. Particulars: 140 µM lucanthone, 14 µM protein, 37°C, 60 min. As for the experimental part:
as §2

Experiment [5] concerns the target T3, APE1 mutant proteins (Homo sapiens, UniProt P27695, W280S).
T3 construct: made in house
Kind of experiment: Cleavage of mutant APE1 proteins by lucanthone, Western blot. Conditions: 100 µM lucanthone, 37°C, 2 h. As to the method:
as §1

The subject of experiment [6] is APE1 mutant proteins. Described as above. More on the design: species or system human. Particulars: 100 µM lucanthone, 37°C, 2 h. As for the experimental part:
as §1

The structures appear in SMILES notation.

T2 sequence (P27695 2-318 F266A/W280A): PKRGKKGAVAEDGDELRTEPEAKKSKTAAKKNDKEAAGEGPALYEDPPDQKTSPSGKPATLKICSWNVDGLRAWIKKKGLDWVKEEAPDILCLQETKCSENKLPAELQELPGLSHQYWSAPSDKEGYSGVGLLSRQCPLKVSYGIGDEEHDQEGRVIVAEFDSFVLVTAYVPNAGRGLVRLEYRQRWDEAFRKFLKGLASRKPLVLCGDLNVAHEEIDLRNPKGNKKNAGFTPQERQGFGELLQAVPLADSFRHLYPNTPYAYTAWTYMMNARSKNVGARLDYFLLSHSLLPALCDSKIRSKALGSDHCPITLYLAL
T3 sequence (P27695 2-318 W280S): as the sequence (P27695 2-318 F266A/W280A) above, with A265F, A279S counted along it
T1 sequence (P27695 2-318 F266A): as the sequence (P27695 2-318 F266A/W280A) above, with A279W counted along it

For `CCN(CC)CCNc1ccc(C)c2sc3ccccc3c(=O)c12` [lucanthone, 1-[2-diethylaminoethylamino]-4-methylthioxanthen-9-one], the “Effect on tubulin protein” value in experiment [1] is “unaffected”. The “Inhibition of endonuclease activity of single mutants F266A or W280S” value in experiment [2] is recorded as “no inhibition was detected”. Besides, in experiment [3], the “Conformational change of double mutant F266A/W280A (CD)” value is reported as “almost no conformational change”. Also, in experiment [4], the “Conformational change of wild type and D210N active site mutant APE1 (CD)” value is “able to induce conformational changes”. For the same molecule, the “Cleavage of W280S mutant” value in experiment [5] was “significant cleavage”. Further, the “Cleavage of hydrophobic site mutants except W280S” value in experiment [6] is recorded as “did not undergo cleavage”.

These data come from publication PMC3174134, “Lucanthone and Its Derivative Hycanthone Inhibit Apurinic Endonuclease-1 (APE1) by Direct Protein Binding” (PLoS ONE, 2011).
